# Test results from US9555055B2, “Use of albiflorin and metabolites thereof” (priority 2010, dated 2017).
# Where a name gives a salt, the structure may show the parent alone. Marks after values point to notes of the source that are not given here.
# Legend:
# Type in all cases: in vivo
# ICR mice [1] = assay: Sleep-prolonging test of pentobarbital sodium at the suprathreshold dose; details: 10 days, pentobarbital sodium 51 mg/kg ip
# Experimental: (§1) If the mice were kept in a supine position for more than 1 min, it would be considered that the righting reflex was disappeared in mice. After spontaneously rolling over, the mice were immediately placed in a supine position. If the mice could roll over within 1 min, it would be considered that the righting reflex was recovered. The time of the righting reflex being disappeared and recovered in mice were recorded. The period from the mice being intraperitoneally injected with pentobarbital sodium until the righting reflex being disappeared in mice was recorded as sleep latency. The period from the righting reflex being disappeared in mice until the righting reflex being recovered in mice was recorded as sleep duration. The sleep duration of more than 5 min in mice was considered as being asleep.
# (§2) The mice were administered with drugs for consecutive 10 days. 1 h after the last administration, the mice were intraperitoneally injected with the suprathreshold dose of pentobarbital sodium (51 mg/kg, 0.1 ml/10 g). The righting reflex being disappeared and recovered in mice were observed, and the time of the righting reflex being disappeared and recovered in mice were recorded. The evaluation criteria of sleep latency, sleep duration and sleep rate were the same as those in Section 7.2.1.
# ICR mice [2] = assay: Sleeping-inducing test of pentobarbital sodium at the subthreshold dose; details: 14 days, pentobarbital sodium 35 mg/kg ip
# Experimental: (§3) 140 ICR mice (15-17 g, male, purchased from Institute of Laboratory Animal Sciences, CAMS & PUMC) were randomly divided into 10 groups (14 mice per group) as follows: paeoniflorin group at a dose of 100 mg/kg, paeoniflorin group at a dose of 50 mg/kg, paeoniflorin group at a dose of 25 mg/kg, paeoniflorin group at a dose of 12.5 mg/kg, albiflorin group at a dose of 28 mg/kg, albiflorin group at a dose of 14 mg/kg, albiflorin group at a dose of 7 mg/kg, normal saline control group, high-dose group of doxepin as a positive drug (25 mg/kg), and low-dose group of doxepin as a positive drug (1 mg/kg).
# as §1
# as §2, with “consecutive 14” for “consecutive 10”, “the subthreshold” for “the suprathreshold”, “sodium (35” for “sodium (51”
# ICR mice [3] = assay: Spontaneous actions in mice; details: 14 days after administration
# Experimental: as §3
# 5-HT1A receptor = assay: mRNA expression of 5-HT1A receptor in hippocampus of chronic stress rats (RT-PCR); details: 2.5 mg/kg/d, 21 days
# Experimental: After having free access to food and being deprived water for 24 h, 72 normal rats were administered with 1% sucrose aqueous solution, and measured the consumption within 1 h. According to the consumption of sucrose aqueous solution, the rats were randomly divided into six groups, 12 […] per group, i.e. normal control group, model group, positive drug Prozac group (2.5 mg/kg/d), high-dose group (70 mg/kg/d, comprising 11.2 mg of albiflorin), medium-dose group (35 mg/kg/d, comprising 5.6 mg of albiflorin), and low-dose group (17.5 mg/kg/d, comprising 2.8 mg of albiflorin) of Paeonia lactiflora Pall extract. When being modeled, the rats were simultaneously administered with drugs, once a day, for consecutive 21 days. […]
# According to the instruction of TRIzol reagent, the total RNAs were extracted by one-step guanidine-isothiocyanate method. The integrity of the extracted total RNAs was confirmed by 0.9% agarose gel electrophoresis, and the content and purity of RNA were determined by UV spectrophotometer. […]
# 30 μl of 5-HT1A-R-amplified product and 10 μl of Actin-amplified product were mixed, and then subjected to 1.5% agarose gel electrophoresis. […] The ratio of IOD5-HTR/IODActin was the relative quantification of the amplified products, and the intergroup comparisons were carried out.
# KM mice = assay: Light-dark box test in mice (anti-anxiety test); details: 2.5 mg/kg/d gavage, 7 days, test 1 h after administration on Day 8
# Experimental: Mice were randomly divided into 5 groups, i.e. high-dose group (14 mg/kg/d), medium-dose group (7 mg/kg/d), low-dose group (3.5 mg/kg/d) of Albiflorin, diazepam group (2.5 mg/kg/d), NS group. Gavage administration was performed once a day, for consecutive 7 days. During the administration, animals had free access to feed and water. The test was carried out 1 hour after the administration on Day 8.
# Within the light-dark box (44 cm×21 cm×21 cm), the dark box accounts for one third thereof, with a cover on the top; while the light box accounts for two thirds thereof, providing illumination brightness; and there is a hole between the two boxes for animal to pass through. In the test, mice were placed in the center of the light box, back to the dark box, and then observed. The times of entering into the dark box followed by returning to the light box in mice were counted, as an index for the assession of anti-anxiety effect of a drug.
# ICR mice [4] = assay: Sleeping-inducing test of pentobarbital sodium at the subthreshold dose; details: 2 mg/kg, 14 days; pentobarbital sodium 35 mg/kg ip
smiles,measurement,setting,value
"C[C@@]12C[C@@]3(O)O[C@@H](O1)[C@]1(COC(=O)c4ccccc4)[C@H]3C[C@@]12O[C@@H]1O[C@H](CO)[C@@H](O)[C@H](O)[C@H]1O [Paeoniflorin, paeoniflorin]",Sleep Duration,ICR mice [1]; 12.5 mg/kg,74.57 ± 13.02 min
same,Sleep Latency,ICR mice [1]; 12.5 mg/kg,4.11 ± 1.52 min
same,Sleep Duration,ICR mice [1]; 25 mg/kg,68.64 ± 19.23 min
same,Sleep Latency,ICR mice [1]; 25 mg/kg,4.96 ± 2.18 min
same,Sleep Duration,ICR mice [1]; 50 mg/kg,73.70 ± 27.88 min
same,Sleep Latency,ICR mice [1]; 50 mg/kg,5.17 ± 1.37 min
same,Sleep Duration,ICR mice [1]; 100 mg/kg,72.98 ± 20.83 min
same,Sleep Latency,ICR mice [1]; 100 mg/kg,28.10 ± 44.63 min
same,Number of Sleeping Mice/Group,ICR mice [2]; 12.5 mg/kg,2
same,Sleep Rate,ICR mice [2]; 12.5 mg/kg,2/13
same,Number of Sleeping Mice/Group,ICR mice [2]; 25 mg/kg,4
same,Sleep Rate,ICR mice [2]; 25 mg/kg,1/3
same,Number of Sleeping Mice/Group,ICR mice [2]; 50 mg/kg,5
same,Sleep Rate,ICR mice [2]; 50 mg/kg,5/12
same,Number of Sleeping Mice/Group,ICR mice [2]; 100 mg/kg,3
same,Sleep Rate,ICR mice [2]; 100 mg/kg,3/11
same,Times of Spontaneous Action,ICR mice [3]; 12.5 mg/kg,456.71 ± 93.95
same,Times of Spontaneous Action,ICR mice [3]; 25 mg/kg,468.71 ± 73.56
same,Times of Spontaneous Action,ICR mice [3]; 50 mg/kg,503.00 ± 137.04
same,Times of Spontaneous Action,ICR mice [3]; 100 mg/kg,434.45 ± 76.43
"CNCCC(Oc1ccc(C(F)(F)F)cc1)c1ccccc1 (centres unmarked) [Positive Drug, fluoxetine hydrochloride]",mRNA expression of 5-HT1A receptor (ratio IOD5-HTR/IODActin),5-HT1A receptor,0.63 ± 0.21
CN1C(=O)CN=C(c2ccccc2)c2cc(Cl)ccc21 [Diazepam],Times of Returning from Dark Box back to Light Box,KM mice,13.6 ± 3.35
same,Times of Spontaneous Action,ICR mice [3]; 2 mg/kg,301.85 ± 103.11
same,Number of Sleeping Mice/Group,ICR mice [4],12
same,Sleep Rate,ICR mice [4],12/13*
"CN(C)CCC=C1c2ccccc2COc2ccccc21.Cl [Doxepin, Doxepin Hydrochloride]",Sleep Duration,ICR mice [1]; 1 mg/kg,74.91 ± 16.55 min
same,Sleep Latency,ICR mice [1]; 1 mg/kg,4.38 ± 1.60 min
same,Sleep Duration,ICR mice [1]; 25 mg/kg,63.60 ± 12.09 min
same,Sleep Latency,ICR mice [1]; 25 mg/kg,4.72 ± 2.40 min
same,Number of Sleeping Mice/Group,ICR mice [2]; 1 mg/kg,1
same,Sleep Rate,ICR mice [2]; 1 mg/kg,1/12
same,Times of Spontaneous Action,ICR mice [3]; 1 mg/kg,420.50 ± 110.28
